Test results: PubChem BioAssay (NCI)
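Compound exposure: 48 hours, 5 concentrations, 96-well plates. TGI denotes the concentration required for complete inhibition of growth.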

What follows are compounds tested on DLD-1 colon (assay: NCI tumour cell line growth inhibition, 48 h).

Row | SMILES | TGI
1 | COc1ccc(/C=N/n2cnc3c(c2=O)SC(=C(C#N)C#N)N3c2ccccc2)cc1 | > 100 µM
2 | COc1ccc(C2COc3c(ccc(O)c3C)C2)cc1OC (stereo not given) | > 200 µM
3 | CN(C)CCNC(=O)c1cccc2[nH]c(-c3ccccn3)nc12 | > 100 µM
4 | Nc1nc(SCc2ccccc2Cl)c2[nH]cnc2n1 | > 100 µM
5 | C=CCCC1(C)CCCNC1=S (stereo not given) | > 100 µM

What follows are compounds tested on HOP-18 NSCLC (assay: NCI tumour cell line growth inhibition, 48 h).

Row | SMILES | TGI
6 | COc1ccc(/C=N/n2cnc3c(c2=O)SC(=C(C#N)C#N)N3c2ccccc2)cc1 | > 100 µM
7 | COc1ccc(C2COc3c(ccc(O)c3C)C2)cc1OC (stereo not given) | 30.8 µM
8 | CN(C)CCNC(=O)c1cccc2[nH]c(-c3ccccn3)nc12 | > 87 µM
9 | C=CCCC1(C)CCCNC1=S (stereo not given) | > 100 µM

What follows are compounds tested on KM20L2 colon (assay: NCI tumour cell line growth inhibition, 48 h).

Row | SMILES | TGI
10 | COc1ccc(C2COc3c(ccc(O)c3C)C2)cc1OC (stereo not given) | > 200 µM
11 | CN(C)CCNC(=O)c1cccc2[nH]c(-c3ccccn3)nc12 | > 100 µM
12 | Nc1nc(SCc2ccccc2Cl)c2[nH]cnc2n1 | > 100 µM
13 | C=CCCC1(C)CCCNC1=S (stereo not given) | > 100 µM

These compounds were tested on LXFL 529 NSCLC (assay: NCI tumour cell line growth inhibition, 48 h).

Row | SMILES | TGI
14 | COc1ccc(/C=N/n2cnc3c(c2=O)SC(=C(C#N)C#N)N3c2ccccc2)cc1 | > 100 µM
15 | Nc1nc(SCc2ccccc2Cl)c2[nH]cnc2n1 | > 100 µM

These compounds were tested on M19-MEL melanoma (assay: NCI tumour cell line growth inhibition, 48 h).

Row | SMILES | TGI
16 | COc1ccc(/C=N/n2cnc3c(c2=O)SC(=C(C#N)C#N)N3c2ccccc2)cc1 | > 100 µM
17 | COc1ccc(C2COc3c(ccc(O)c3C)C2)cc1OC (stereo not given) | > 200 µM
18 | CN(C)CCNC(=O)c1cccc2[nH]c(-c3ccccn3)nc12 | > 91.8 µM
19 | Nc1nc(SCc2ccccc2Cl)c2[nH]cnc2n1 | > 100 µM

What follows are compounds tested on P388 leukemia (assay: NCI tumour cell line growth inhibition, 48 h).

Row | SMILES | TGI
20 | COc1ccc(C2COc3c(ccc(O)c3C)C2)cc1OC (stereo not given) | > 125 µM
21 | CN(C)CCNC(=O)c1cccc2[nH]c(-c3ccccn3)nc12 | 34.7 µM

Each compound was assayed on P388/ADR leukemia (assay: NCI tumour cell line growth inhibition, 48 h).

Row | SMILES | TGI
22 | COc1ccc(C2COc3c(ccc(O)c3C)C2)cc1OC (stereo not given) | > 113 µM
23 | CN(C)CCNC(=O)c1cccc2[nH]c(-c3ccccn3)nc12 | 53.5 µM

The compounds below were run on SN12K1 renal (assay: NCI tumour cell line growth inhibition, 48 h).

Row | SMILES | TGI
24 | COc1ccc(C2COc3c(ccc(O)c3C)C2)cc1OC (stereo not given) | 154 µM
25 | CN(C)CCNC(=O)c1cccc2[nH]c(-c3ccccn3)nc12 | > 100 µM
